Results reported in patent US9409905B2, “Antibacterial compounds and methods for use” (PTC THERAPEUTICS, INC., priority 2011, dated 2016).
Values after ≈ are worked out from the molar mass of the structure shown.

How the values were obtained:
E. coli LZ3111 = test: Antibacterial activity, MIC, quinolone resistant strain (Table 2); type: cell-based; settings: Escherichia coli, LZ3111, read-out: MIC LZ3111
Text: (§1) The antibacterial activity from a microbroth dilution method may be presented as the minimum inhibitory concentration (MIC in μg/mL). The MIC value is the lowest concentration of drug which prevents macroscopically visible growth under test conditions.
Mutations in these regions are known to confer a high level resistance to the quinolone class of antibiotics.

[1] = test system: Escherichia coli (E. coli) BAS849; test: Antibacterial activity, microbroth dilution MIC (Table 1); type: cell-based; settings: microbroth dilution, super sensitive Gram-negative E. coli BAS849, read-out: MIC, BAS849
Text: as §1
(§2) Antibacterial activity of test compounds against the super sensitive Gram-negative Escherichia coli (E. coli) BAS849 bacterium, the control Gram-negative E. coli 25922 strain and the Gram-positive Staphylococcus aureus (S. aureus) 29213 bacterium are shown in Table 1.

[2] = test system: Staphylococcus aureus (S. aureus) 29213; test: as above; type: cell-based; settings: microbroth dilution, Gram-positive S. aureus 29213, read-out: MIC, 29213
Text: as §1, §2

E. coli 25922 = test: as above; type: cell-based, Escherichia coli; settings: Escherichia coli; microbroth dilution; control Gram-negative E. coli 25922 strain; read-out: MIC, 25922
Text: as §1, §2

Structure (SMILES): CCc1cc(C(=O)O)c(=O)[nH]c1-c1ccc2c(c1)c(CN(C)C)cn2C [Cpd 75, 6-(3-((dimethylamino)methyl)-1-methyl-1H-indol-5-yl)-5-ethyl-2-oxo-1,2-dihydropyridine-3-carboxylic acid]
- MIC (E. coli LZ3111): 12.5 to 150 µg/mL (≈ 35.4 to 424 µM)
- MIC [1]: 12.5 to 150 µg/mL (≈ 35.4 to 424 µM)
- MIC [2]: 12.5 to 150 µg/mL (≈ 35.4 to 424 µM)
- MIC (E. coli 25922): 12.5 to 150 µg/mL (≈ 35.4 to 424 µM)

Structure (SMILES): CCc1cc(C(=O)O)c(=O)[nH]c1-c1ccc2c(c1)cc(CN1CCNCC1)n2C [Cpd 139, 5-ethyl-6-(1-methyl-2-(piperazin-1-ylmethyl)-1H-indol-5-yl)-2-oxo-1,2-dihydropyridine-3-carboxylic acid]
- MIC (E. coli LZ3111): 12.5 to 150 µg/mL (≈ 31.7 to 380 µM)
- MIC [1]: 1 to 3.5 µg/mL (≈ 2.54 to 8.87 µM)
- MIC [2]: 12.5 to 150 µg/mL (≈ 31.7 to 380 µM)
- MIC (E. coli 25922): 12.5 to 150 µg/mL (≈ 31.7 to 380 µM)

Structure (SMILES): CCc1cc(C(=O)O)c(=O)[nH]c1-c1ccc2c(c1)cc(CN1C[C@@H]3[C@H](C1)[C@H]3N(Cc1ccccc1)Cc1ccccc1)n2C [Cpd 143, 6-(2-(((1R,5S,6s)-6-(dibenzylamino)-3-azabicyclo[3.1.0]hexan-3-yl)methyl)-1-methyl-1H-indol-5-yl)-5-ethyl-2-oxo-1,2-dihydropyridine-3-carboxylic acid]
- MIC (E. coli LZ3111): 12.5 to 150 µg/mL (≈ 21.3 to 256 µM)
- MIC [1]: < 1 µg/mL
- MIC [2]: 3.5 to 12.5 µg/mL (≈ 5.97 to 21.3 µM)
- MIC (E. coli 25922): 12.5 to 150 µg/mL (≈ 21.3 to 256 µM)

Structure (SMILES): CCc1cc(C(=O)O)c(=O)[nH]c1-c1ccc2c(cc(CN3CCCC3)n2C)n1 [Cpd 84, 5-ethyl-6-(1-methyl-2-(pyrrolidin-1-ylmethyl)-1H-pyrrolo[3,2-b]pyridin-5-yl)-2-oxo-1,2-dihydropyridine-3-carboxylic acid]
- MIC (E. coli LZ3111): 12.5 to 150 µg/mL (≈ 32.9 to 394 µM)
- MIC [1]: 1 to 3.5 µg/mL (≈ 2.63 to 9.2 µM)
- MIC [2]: 12.5 to 150 µg/mL (≈ 32.9 to 394 µM)
- MIC (E. coli 25922): 3.5 to 12.5 µg/mL (≈ 9.2 to 32.9 µM)

Structure (SMILES): CCc1c(-c2ccc3c(c2)cc(CN2CCC(F)(F)CC2)n3C)[nH]c(=O)c(C(=O)O)c1O [Cpd 249, 6-(2-((4,4-difluoropiperidin-1-yl)methyl)-1-methyl-1H-indol-5-yl)-5-ethyl-4-hydroxy-2-oxo-1,2-dihydropyridine-3-carboxylic acid]
- MIC (E. coli LZ3111): 12.5 to 150 µg/mL (≈ 28.1 to 337 µM)
- MIC [1]: < 1 µg/mL
- MIC [2]: 1 to 3.5 µg/mL (≈ 2.24 to 7.86 µM)
- MIC (E. coli 25922): 12.5 to 150 µg/mL (≈ 28.1 to 337 µM)

Structure (SMILES): CCc1cc(C(=O)O)c(=O)[nH]c1-c1cc(C)c2c(c1)cc(CN1CCCCC1)n2C [Cpd 100, 6-(1,7-dimethyl-2-(piperidin-1-ylmethyl)-1H-indol-5-yl)-5-ethyl-2-oxo-1,2-dihydropyridine-3-carboxylic acid]
- MIC (E. coli LZ3111): 12.5 to 150 µg/mL (≈ 30.7 to 368 µM)
- MIC [1]: < 1 µg/mL
- MIC [2]: 12.5 to 150 µg/mL (≈ 30.7 to 368 µM)
- MIC (E. coli 25922): 3.5 to 12.5 µg/mL (≈ 8.59 to 30.7 µM)

Structure (SMILES): CCc1c(-c2ccc3c(c2)cc(CN2CCC(c4ccccn4)C2)n3C)[nH]c(=O)c(C(=O)O)c1O (stereo not shown) [Cpd 267, 5-ethyl-4-hydroxy-6-(1-methyl-2-((3-(pyridin-2-yl)pyrrolidin-1-yl)methyl)-1H-indol-5-yl)-2-oxo-1,2-dihydropyridine-3-carboxylic acid]
- MIC (E. coli LZ3111): 12.5 to 150 µg/mL (≈ 26.5 to 317 µM)
- MIC [1]: < 1 µg/mL
- MIC [2]: 3.5 to 12.5 µg/mL (≈ 7.41 to 26.5 µM)
- MIC (E. coli 25922): 1 to 3.5 µg/mL (≈ 2.12 to 7.41 µM)

Structure (SMILES): CCc1cc(C(=O)O)c(=O)[nH]c1-c1ccc2c(c1)cc(CN1C[C@H]3CCC[C@@H](N(C)C)[C@H]3C1)n2C [Cpd 149, 6-(2-(((3aR,4R,7aS)-4-(dimethylamino)-1H-isoindol-2(3H,3aH,4H,5H,6H,7H,7aH)-yl)methyl)-1-methyl-1H-indol-5-yl)-5-ethyl-2-oxo-1,2-dihydropyridine-3-carboxylic acid]
- MIC (E. coli LZ3111): 12.5 to 150 µg/mL (≈ 26.2 to 315 µM)
- MIC [1]: < 1 µg/mL
- MIC [2]: 12.5 to 150 µg/mL (≈ 26.2 to 315 µM)
- MIC (E. coli 25922): 1 to 3.5 µg/mL (≈ 2.1 to 7.34 µM)

Structure (SMILES): CCc1cc(C(=O)O)c(=O)[nH]c1-c1ccc2c(c1)cc([C@H]1CCCN1)n2C.Cl [Cpd 67, (R)-5-ethyl-6-(1-methyl-2-(pyrrolidin-2-yl)-1H-indol-5-yl)-2-oxo-1,2-dihydropyridine-3-carboxylic acid hydrochloride]
- MIC (E. coli LZ3111): 12.5 to 150 µg/mL
- MIC [1]: < 1 µg/mL
- MIC [2]: 12.5 to 150 µg/mL
- MIC (E. coli 25922): 1 to 3.5 µg/mL

Structure (SMILES): CCc1cc(C(=O)O)c(=O)[nH]c1-c1ccc2c(c1)c(CN)cn2C [Cpd 74, 6-(3-(aminomethyl)-1-methyl-1H-indol-5-yl)-5-ethyl-2-oxo-1,2-dihydropyridine-3-carboxylic acid]
- MIC (E. coli LZ3111): 12.5 to 150 µg/mL (≈ 38.4 to 461 µM)
- MIC [1]: 12.5 to 150 µg/mL (≈ 38.4 to 461 µM)
- MIC [2]: 12.5 to 150 µg/mL (≈ 38.4 to 461 µM)
- MIC (E. coli 25922): 12.5 to 150 µg/mL (≈ 38.4 to 461 µM)

Structure (SMILES): CCc1c(-c2ccc3c(c2)c(C#N)c(N2CCCC2)n3C)[nH]c(=O)c(C(=O)O)c1O [Cpd 360, 6-(3-cyano-1-methyl-2-(pyrrolidin-1-yl)-1H-indol-5-yl)-5-ethyl-4-hydroxy-2-oxo-1,2-dihydropyridine-3-carboxylic acid]
- MIC (E. coli LZ3111): 12.5 to 150 µg/mL (≈ 30.8 to 369 µM)
- MIC [1]: 3.5 to 12.5 µg/mL (≈ 8.61 to 30.8 µM)
- MIC [2]: 1 to 3.5 µg/mL (≈ 2.46 to 8.61 µM)
- MIC (E. coli 25922): 12.5 to 150 µg/mL (≈ 30.8 to 369 µM)

Structure (SMILES): CCc1cc(C(=O)O)c(=O)[nH]c1-c1ccc2c(c1)cc(C1CNCCN1)n2C.Cl.Cl (stereo not shown) [Cpd 70, 5-ethyl-6-(1-methyl-2-(piperazin-2-yl)-1H-indol-5-yl)-2-oxo-1,2-dihydropyridine-3-carboxylic acid dihydrochloride]
- MIC (E. coli LZ3111): 12.5 to 150 µg/mL
- MIC [1]: 3.5 to 12.5 µg/mL
- MIC [2]: 12.5 to 150 µg/mL
- MIC (E. coli 25922): 12.5 to 150 µg/mL

Structure (SMILES): CCc1cc(C(=O)O)c(=O)[nH]c1-c1cc2cc(C(=O)O)n(C)c2cn1 [Cpd 54, 5-(5-carboxy-3-ethyl-6-oxo-1,6-dihydropyridin-2-yl)-1-methyl-1H-pyrrolo[2,3-c]pyridine-2-carboxylic acid]
- MIC (E. coli LZ3111): 12.5 to 150 µg/mL (≈ 36.6 to 439 µM)
- MIC [1]: 1 to 3.5 µg/mL (≈ 2.93 to 10.3 µM)
- MIC [2]: 12.5 to 150 µg/mL (≈ 36.6 to 439 µM)
- MIC (E. coli 25922): 12.5 to 150 µg/mL (≈ 36.6 to 439 µM)

Structure (SMILES): CCc1c(-c2ccc3c(c2)cc(CNCc2cccc(OC)c2)n3C)[nH]c(=O)c(C(=O)O)c1O [Cpd 296, 5-ethyl-4-hydroxy-6-(2-((3-methoxybenzylamino)methyl)-1-methyl-1H-indol-5-yl)-2-oxo-1,2-dihydropyridine-3-carboxylic acid]
- MIC (E. coli LZ3111): 12.5 to 150 µg/mL (≈ 27.1 to 325 µM)
- MIC [1]: < 1 µg/mL
- MIC [2]: 3.5 to 12.5 µg/mL (≈ 7.58 to 27.1 µM)
- MIC (E. coli 25922): < 1 µg/mL

Structure (SMILES): Cn1c(CN2CCCC2)cc2cc(-c3cc(O)c(C(=O)O)c(=O)[nH]3)ccc21 [Cpd 327, 4-hydroxy-6-(1-methyl-2-(pyrrolidin-1-ylmethyl)-1H-indol-5-yl)-2-oxo-1,2-dihydropyridine-3-carboxylic acid]
- MIC (E. coli LZ3111): 12.5 to 150 µg/mL (≈ 34 to 408 µM)
- MIC [1]: 3.5 to 12.5 µg/mL (≈ 9.53 to 34 µM)
- MIC [2]: 12.5 to 150 µg/mL (≈ 34 to 408 µM)
- MIC (E. coli 25922): 12.5 to 150 µg/mL (≈ 34 to 408 µM)

Structure (SMILES): CCc1c(-c2ccc3c(c2)cc(CNCc2cccc(C)c2)n3C)[nH]c(=O)c(C(=O)O)c1O [Cpd 294, 5-ethyl-4-hydroxy-6-(1-methyl-2-((3-methylbenzylamino)methyl)-1H-indol-5-yl)-2-oxo-1,2-dihydropyridine-3-carboxylic acid]
- MIC (E. coli LZ3111): 12.5 to 150 µg/mL (≈ 28.1 to 337 µM)
- MIC [1]: < 1 µg/mL
- MIC [2]: 1 to 3.5 µg/mL (≈ 2.24 to 7.86 µM)
- MIC (E. coli 25922): < 1 µg/mL

Structure (SMILES): CCc1cc(C(=O)O)c(=O)[nH]c1-c1ccc2c(c1)cc(CN[C@H](C)c1ccccc1)n2C [Cpd 116, (R)-5-ethyl-6-(1-methyl-2-((1-phenylethylamino)methyl)-1H-indol-5-yl)-2-oxo-1,2-dihydropyridine-3-carboxylic acid]
- MIC (E. coli LZ3111): 12.5 to 150 µg/mL (≈ 29.1 to 349 µM)
- MIC [1]: < 1 µg/mL
- MIC [2]: 1 to 3.5 µg/mL (≈ 2.33 to 8.15 µM)
- MIC (E. coli 25922): < 1 µg/mL

Structure (SMILES): CCc1cc(C(=O)O)c(=O)[nH]c1-c1ccc2c(cc(CN3CCCC3)n2C)c1F [Cpd 158, 5-ethyl-6-(4-fluoro-1-methyl-2-(pyrrolidin-1-ylmethyl)-1H-indol-5-yl)-2-oxo-1,2-dihydropyridine-3-carboxylic acid]
- MIC (E. coli LZ3111): 12.5 to 150 µg/mL (≈ 31.5 to 377 µM)
- MIC [1]: < 1 µg/mL
- MIC [2]: 12.5 to 150 µg/mL (≈ 31.5 to 377 µM)
- MIC (E. coli 25922): 1 to 3.5 µg/mL (≈ 2.52 to 8.81 µM)

Structure (SMILES): CCc1cc(C(=O)O)c(=O)[nH]c1-c1ccc2c(ccn2CCO)c1 [Cpd 23, 5-ethyl-6-(1-(2-hydroxyethyl)-1H-indol-5-yl)-2-oxo-1,2-dihydropyridine-3-carboxylic acid]
- MIC (E. coli LZ3111): 12.5 to 150 µg/mL (≈ 38.3 to 460 µM)
- MIC [1]: < 1 µg/mL
- MIC [2]: 12.5 to 150 µg/mL (≈ 38.3 to 460 µM)
- MIC (E. coli 25922): 3.5 to 12.5 µg/mL (≈ 10.7 to 38.3 µM)
